Data set [1] concerns MCF-7, T47D, BT20, MDA-MB231, PC3, BxPC3, COLO357 cancer cell lines. Briefly: MTT assay, panel of breast, prostate and pancreatic cancer cell lines. The class given is cell-based. The conditions noted are these: in words. As for the experimental part:
(§1) The compounds were tested in multiple panels of breast (MCF-7, T47D, BT20 and MDA-MB231), prostate (PC3), and pancreatic (BxPC3, COLO357) cancer cell lines, using the dye 3-[4,5 dimethylthiazol-2-yl]-2,5 diphenyltetrazolium bromide (MTT assay) according to a method described in Banerjee, et al., Cancer Research, Vol. 62, page 4945 (2002).
More specifically, the tumor cell lines MCF-7, MDA-MB 231 and COLO 357 were maintained in Dulbecco's modifed Eagle's medium (DMEM) with phenol red. Cell lines T47D, BT20, PC3 and BxPC3 were routinely cultured in RPMI medium, each medium being supplemented with Penicillin (50 U/ml), Streptomycin (50 μg/ml) and 10% fetal calf serum (FCS) (Gibco, Myclone). The cell lines were cultured in a humidified incubator in an atmosphere of 5% CO2 and were maintained in continuous exponential growth by twice a week passage.
Adherent cells at a logarithmic phase were detached by addition of 2-3 ml of trypsin (Gibco), 0.02% EDTA mixture and incubation at 37° C. Cells were plated (100 μL per well) in 48 well flat bottom microtiter plates at densities of 2000 to 5000 per cm^2 (MCF-7, […], T47D, BT20, PC3, BxPC3, COLO357) cells per well. Cells were incubated for 24 h at 37° C. to resume exponential growth. […] Cell proliferation was evaluated after 72h by means of MTT assay.

Data set [2] has as its system breast cancer cell line (T47D). Briefly: Propidium iodide / Hoechst 33342 fluorescence microscopy for apoptosis. The data set is classed as cell-based. As for the experimental part: To provide further evidence of apoptosis, we carried out […] using a mixture of propidium iodide (PI) and Hoechst dye 33342 to determine the integrity of cell membranes of cancer cells. The quantification of the apoptosis was carried out by cell count after staining with PI followed by visualization of treated cells by fluorescence analysis. The fluorescent dyes PI and Hoechst 33342 were added to the cell culture medium after treatment with the test compounds (10 μM) for 48 h at a final concentrations of 10 μg/ml (PI dye) and Hoechst 33342 (1 μg/ml), respectively. After 5 minutes at 37° C. the cells were placed under a fluorescence microscope (Nikon Optiphot) with a filter block giving excitation at 380 nm and 480 nm.

The test system of data set [3] is tumor cells. Briefly: Incubation with copper conjugate at IC50 concentration, viability and apoptosis (data not shown). The class given is cell-based.
The test system of data set [4] is Akt, p-Akt and PARP in PC3 cells. The data set is described as follows: Western blot of Akt, p-Akt and PARP. The class given is cell-based, human. The conditions noted are these: 10 and 20 μM, 72 h. The method, then: Control cells were incubated in the medium with Na2CO3 using same time point. After incubation the cells were lysed with This-HCl (62.5 mm) and 2% SDS. Protein concentration was then measured using […] protein assay (Pierce Chemical Co., Rockford, Ill.). Cell extracts were subjected to 10% SDS-PAGE and electrophoretically transferred to nitrocellulose membrane. Membranes were then incubated with monoclonal anti-Akt (epitome: amino acids 345-480 of Akt1, 1:500; Ontogeny, 26. San Diego, Calif.), anti-phosphor-Akt Ser473 (1:1000; Cell Signaling, Beverly, Mass.), primary monoclonal anti-PARP antibody (1:5000; Biomol, Plymouth Meeting, Pa.) and anti-β-actin (1:5000; Sigma) antibodies, washed with TTBS, and incubated with secondary antibody conjugated with peroxidase. The signal was then detected using the chemiluminescent detection system (Pierce, Rockford, Ill.).
(A western blot detects proteins with antibodies after separation by electrophoresis.)

In data set [5] the test system is vascular endothelial growth factor (VEGF) in BxPC3 cells. The data set is described as follows: In vitro expression of VEGF (ELISA). The data set is classed as cell-based, human. The conditions noted are these: 10 μM, 20 μM, 72 h. The method, then:
BxPC3 cells (0.1×10^6/well) were plated into 6-well plates and incubated in supplemented RPMI containing 10% FBS.
Background: In an ELISA, binding on a coated surface is turned into a signal by an enzyme label.

The subject of data set [6] is COLO 357 cells. Briefly: Orthotopic pancreatic tumor model. The data set is classed as in vivo.
From the text: Since the NF-κB pathway is regulated by Akt protein, the effects of the FPA-124 on NF-κB activity was studied in an in vivo experiment, specifically the well-established orthotopic pancreatic tumor model using COLO 357 cells.
Data set [7] deals with NF-κB. Briefly: EMSA of NF-κB in tumor tissue of orthotopic pancreatic model. The data set is classed as in vivo, mice. As for the experimental part:
The redox sensitive transcription factor NF-κB, is downstream of the Akt kinase protein and plays major role in the cell proliferation and metastasis and resistance in major cancers such as breast, prostate and pancreatic. […] Nuclear proteins were extracted from the tumor tissue as described previously (see, for example, Banerjee, et al., Cancer Research, Vo. 65, p. 9064 (2005)) and kept at −70° C. until use. Protein concentration was determined using the bicinchonic acid assay kit with BSA as the standard (Pierce Chemical Co., Rockford, Ill.). The incubation mixture included 25 mM DTT and 2.5% Tween 20 in a binding buffer. The DNA-protein complex formed was separated from free oligonucleotide on 8.0% native polyacralyamide gel using buffer containing 50 mM Tris, 200 mm glycine, pH 8.5, and 1 mM EDTA, and then visualized by Odyssey Infrared Imaging System using Odyssey Software Release 1.1.
However, there were significant differences in the pattern of necrosis, inflammatory response and fibrosis among these two groups. […] The viable tumor cells form large nests or sheets with minimal stromal fibrosis and inflammatory infiltrates. […] Only 20% of the mass was viable. The viable neoplastic cells form small nests of clusters associated with extensive stromal fibrosis and inflammatory infiltrates (See, FIG. 10c). […]

Data set [8] relates to Colo357, BxPC3, BT20, and PC3 cells. Briefly: Cell Death Detection ELISA apoptosis assay. The data set is classed as cell-based. The conditions noted are these: FIG. 15, among FPA-124, FPA-125, FPA-127. As for the experimental part: To determine whether the metal conjugates induce apoptosis in tumor cells, quantitative evaluation of apoptosis was carried out with a Cell Death Detection ELISA kit (Roche, Palo Alto, Calif.). Apoptosis was detected according to the protocol supplied by the manufacturer.
Since all copper compounds are redox active metal conjugates, we believe that redox triggered oxidative stress may be one of the underlying mechanisms for the observed apoptotic cell death in the present case. […] This observation is also in accordance with the favorable distortion factor calculated for the present copper compounds using EPR spectra, which factor helps stabilize cuprous and cupric species without dissociation of the conjugate.

The test system of data set [9] is BT20, PC3, Colo357 and BxPC3 cancer cell lines. The data set is described as follows: MTT cell proliferation assay, four cell lines. The data set is classed as cell-based. The conditions noted are these: text b152; read-out: IC50 values in multiple cancer cell lines. As for the experimental part: as §1
Adherent cells at a logarithmic phase were detached by addition of 2-3 ml of trypsin (Gibco), 0.02% EDTA mixture and incubation at 37° C. Cells were plated (100 μL per well) in 48 well flat bottom microtiter plates at densities of 2000 to 5000 per cm^2 (MCF-7, […], T47D, BT20, PC3, BxPC3, COLO357) cells per well. Cells were incubated for 24 h at 37° C. to resume exponential growth. The test compounds were dissolved in DMSO (final concentration 0.1%) and added to the cells 24 h after seeding at varying concentrations. Control wells containing the culture medium, were included in each experiment. Cell proliferation was evaluated after 72h by means of MTT assay.
The biological effects of these compounds were studied against the hormone independent breast (BT20) and prostate (PC3) cancers as well as K-ras positive (Colo357) and K-ras negative (BxPC3) pancreatic cancer cell lines.
On the technique in general: Tetrazolium dyes change colour on reduction, which living cells bring about.

Where [10] appears, read: FPA-102 25 mg/kg i.v. on alternate days.

SMILES strings stand for the structures.

With `CC(=O)C1CCC2C3CCC4=CC(=NNC(N)=S)CCC4(C)C3CCC12C` (centres unmarked) [FPA-101, 17-acetyl-10,13-dimethyl-1,2,6,7,8,9,11,12,13,14,15,16,17-tetradecahydrocyclopenta[a]phenanthren-3-thiosemicarbazone], the “antiproliferative action against the cell lines tested” value in data set [1] was “moderate antiproliferative action”.
As for `CC(=O)C1CCC2C3CCC4=CC(=NNC(N)=S)CCC4(C)C3CCC12C.[Cl][Cu][Cl]` (centres unmarked) [FPA-102], the “cell morphology after PI/Hoechst staining” value in [2] (IC50 concentration (10 μM), FIG. 7b) was “nuclear condensation and membrane damage”. Further, the “potency of inducing apoptosis among the metal conjugates” value in data set [2] (comparison within series FPA-102 to FPA-104) was “highest potency of inducing apoptosis”. The apoptotic cells in data set [3] (24-48 h treatment at IC50 concentration) was about 95%. The same compound came in with a non-viable cells in data set [3] (3 h incubation at IC50 concentration) of 40%. Further, in data set [4], the “PARP degradation / cleavage” value was “induces poly (ADP-ribose) polymerase degradation” and the phosphor-Akt level entry is listed as “down regulates”. The VEGF levels entry in [5] is on record as “decrease in the VEGF levels”. Further, in data set [6] (setting [10]), the “body weight of treated mice (toxicity)” value is “no significant change in the body weight” and the tumor burden entry was “decrease tumor burden”. Moreover, in data set [6] (tumor histology of treated mice), the “viable part of tumor mass” value is 20%. For the same compound, the “NF-κB in the tumor tissue (EMSA)” value in [7] (treatment for 10 days once every alternate day) is on record as “down-regulation of NF-κB”.
For the compound `NC1=[S+][Cu-2]([Cl])([Cl])[N+](=Cc2coc3ccccc3c2=O)N1` [FPA-124], the “apoptosis by ELISA, ranking” value in data set [8] is recorded as “most active compound”. In addition, the “body weight of the treated animals (toxicity)” value in data set [6] (FPA-124, FIG. 17a) is “no change in the body weight”. The tumor load entry in [6] (FPA-124, FIG. 17b) is “decrease in the tumor load”. Further, the “NF-κB activity in the tumor tissue (EMSA)” value in data set [7] (FPA-124, FIG. 17c) is given as “significantly decreased”.
As for `O=c1c(-c2ccc(O)cc2)coc2cc(O)cc(O)c12` [Genistein, 4,5,7,-trihydroxyisoflavone], the IC50 – broadly, the point on the concentration scale where inhibition reaches its midpoint – in data set [9] was over 40 µM.

The values are drawn from patent publication US20100160268A1, “Isoflavonoid Analogs and their Metal Conjugates as Anti-Cancer Agents” (priority 2005, published 2010).
